The subject of data set [1] is HuH-6. Nature of the data set: Antiproliferative activity against human HuH-6 cells assessed as inhibition of cell growth incubated for 48 hrs by CCK-8 method. The class given is functional, cell-based. The settings on record: HuH-6, 48 h.
Data set [2] concerns HuH-1. Nature of the data set: Antiproliferative activity against human HuH-1 cells assessed as inhibition of cell growth incubated for 48 hrs by CCK-8 method. The class given is functional, cell-based. The settings on record: HuH-1, 48 h.
The subject of data set [3] is Huh-7. Nature of the data set: Antiproliferative activity against human Huh-7 cells assessed as inhibition of cell growth incubated for 48 hrs by CCK-8 method. The class given is functional, cell-based. The settings on record: Huh-7, 48 h.
The test system of data set [4] is HepG2. Briefly: Antiproliferative activity against human HepG2 cells assessed as inhibition of cell growth incubated for 48 hrs by CCK-8 method. The class given is functional, cell-based. The settings on record: HepG2, 48 h.
Data set [5] relates to Hepa 1-6. Nature of the data set: Antiproliferative activity against mouse Hepa1-6 cells assessed as inhibition of cell growth incubated for 48 hrs by CCK-8 method. The format is functional, cell-based. The settings on record: Hepa1-6, 48 h.
In data set [6] the test system is MHCC97H. Briefly: Antiproliferative activity against human MHCC97H cells assessed as inhibition of cell growth incubated for 48 hrs by CCK-8 method. The format is functional, cell-based.
The nature of data set [7]: Antiproliferative activity against mouse AML12 cells assessed as inhibition of cell growth incubated for 48 hrs by CCK-8 method. The format is toxicity, cell-based.
Data set [8] concerns H22. Nature of the data set: Antiproliferative activity against mouse H22 cells assessed as inhibition of cell growth incubated for 48 hrs by CCK-8 method. The settings on record: H22, 48 h. The class given is functional, cell-based.
For data set [9], the system named is HuH-1. Briefly: Induction of autophagy in human HuH-1 cells assessed as downregulation of P62 expression by […] based analysis. The class given is functional, cell-based.
In data set [10] the test system is HuH-1. Nature of the data set: Induction of autophagy in human HuH-1 cells assessed as increase in LC3BI expression by […] based analysis. The class given is functional, cell-based.
Data set [11] deals with HuH-1. Nature of the data set: Induction of autophagy in human HuH-1 cells assessed as increase in ATG5 expression by […] based analysis. The format is functional, cell-based.
The test system of data set [12] is HuH-1. Nature of the data set: Induction of autophagy in human HuH-1 cells assessed as increase in LC3BII expression by […] based analysis. The class given is functional, cell-based.
In data set [13] the test system is HuH-1. Briefly: Antitumor activity against human HuH-1 cells xenografted in NCG mouse model assessed as increase in tumor cell death at 20 mg/kg, ip administered every other day for 14 days. The format is functional, organism-based. The settings on record: time 14.0 day.
Data set [14] concerns HuH-1. Briefly: Antitumor activity against human HuH-1 cells xenografted in NCG mouse model assessed as reduction in tumor cell density at 20 mg/kg, ip administered every other day for 14 days. The class given is functional, organism-based. The settings on record: time 14.0 day.
The nature of data set [15]: Toxicity in NCG mouse assessed as effect on MCH level at 15 mg/kg, ip measured after 14 days. The settings on record: in vivo, 336 h, time 14 day. The format is organism-based.
The subject of data set [16] is HuH-1. Briefly: Antitumor activity against human HuH-1 cells xenografted in NCG mouse model assessed as reduction in tumor weight at 15 mg/kg, ip administered every other day for 14 days. The format is functional, organism-based. The settings on record: time 14.0 day.
The nature of data set [17]: Toxicity in NCG mouse assessed as pathological change in heart at 15 mg/kg, ip measured after 14 days by H and E staining based analysis. The class given is organism-based. The settings on record: in vivo, 336 h, time 14 day.
Data set [18] in a line: Toxicity in NCG mouse assessed as pathological change in liver at 15 mg/kg, ip measured after 14 days by H and E staining based analysis. The format is organism-based. The settings on record: in vivo, 336 h, time 14 day.
The subject of data set [19] is HuH-1. Nature of the data set: Antitumor activity against human HuH-1 cells xenografted in NCG mouse model assessed as reduction in tumor size at 15 mg/kg, ip administered every other day for 14 days. The format is functional, organism-based. The settings on record: time 14.0 day.
Data set [20] is described as follows: Toxicity in NCG mouse assessed as pathological change in spleen at 15 mg/kg, ip measured after 14 days by H and E staining based analysis. The format is organism-based. The settings on record: in vivo, 336 h, time 14 day.
Data set [21] can be described thus: Toxicity in NCG mouse assessed as effect on MCV level at 15 mg/kg, ip measured after 14 days. The format is organism-based. The settings on record: in vivo, 336 h, time 14 day.
Data set [22] can be described thus: Toxicity in NCG mouse assessed as effect on ALT level at 15 mg/kg, ip measured after 14 days. The class given is organism-based. The settings on record: in vivo, 336 h, time 14 day.
A short description of data set [23]: Toxicity in NCG mouse assessed as effect on AST level at 15 mg/kg, ip measured after 14 days. The class given is organism-based. The settings on record: in vivo, 336 h, time 14 day.
Data set [24] is described as follows: Toxicity in NCG mouse assessed as effect on ALB level at 15 mg/kg, ip measured after 14 days. The class given is organism-based. The settings on record: in vivo, 336 h, time 14 day.
Data set [25] deals with HuH-1. Nature of the data set: Antitumor activity against human HuH-1 cells xenografted in NCG mouse model assessed as reduction in tumor cell density at 15 mg/kg, ip administered every other day for 14 days. The class given is functional, organism-based. The settings on record: time 14.0 day.
Data set [26] can be described thus: Toxicity in NCG mouse assessed as effect on UREA level at 15 mg/kg, ip measured after 14 days. The settings on record: in vivo, 336 h, time 14 day. The class given is organism-based.
Data set [27] can be described thus: Toxicity in NCG mouse assessed as effect on HGB level at 15 mg/kg, ip measured after 14 days. The class given is organism-based. The settings on record: in vivo, 336 h, time 14 day.
A short description of data set [28]: Toxicity in NCG mouse assessed as effect on LDH level at 15 mg/kg, ip measured after 14 days. The format is organism-based. The settings on record: in vivo, 336 h, time 14 day.
Data set [29] can be described thus: Toxicity in NCG mouse assessed as pathological change in kidney at 15 mg/kg, ip measured after 14 days by H and E staining based analysis. The class given is organism-based. The settings on record: in vivo, 336 h, time 14 day.
Data set [30] in a line: Toxicity in NCG mouse assessed as pathological change in lung at 15 mg/kg, ip measured after 14 days by H and E staining based analysis. The format is organism-based. The settings on record: in vivo, 336 h, time 14 day.
Data set [31] in a line: Toxicity in NCG mouse assessed as effect on RBC level at 15 mg/kg, ip measured after 14 days. The format is organism-based, Erythrocyte. The settings on record: in vivo, 336 h, time 14 day.
In data set [32] the test system is HuH-1. Nature of the data set: Antitumor activity against human HuH-1 cells xenografted in NCG mouse model assessed as increase in tumor cell death at 15 mg/kg, ip administered every other day for 14 days. The format is functional, organism-based. The settings on record: time 14.0 day.
A short description of data set [33]: Toxicity in NCG mouse assessed as pathological change in tumor at 15 mg/kg, ip measured after 14 days by H and E staining based analysis. The format is organism-based. The settings on record: in vivo, 336 h, time 14 day.
Data set [34] is described as follows: Toxicity in NCG mouse assessed as effect on HCT level at 15 mg/kg, ip measured after 14 days. The format is organism-based. The settings on record: in vivo, 336 h, time 14 day.

Structures are written as SMILES. Activity calls are given as the source filed them. No cut-off for these calls is given here.

For `COC(=O)[C@H](CCCCNC(=O)CN1C(=O)C(=O)c2cc(OC)ccc21)NC(=O)CN1C(=O)C(=O)c2cc(OC)ccc21`, the 50% inhibitory concentration (IC50) in [1], in [2], in data set [3], in [4], in data set [5] and in data set [6] was more than 100 µM in each case. For the same molecule, the IC50 in data set [8] is more than 100 µM. For the same molecule, the 50% inhibitory concentration (IC50) at 48 h in data set [7] was more than 100 µM.

On to `COC(=O)[C@H](CCCCNC(=O)CN1C(=O)C(=O)c2ccccc21)NC(=O)CN1C(=O)C(=O)c2ccccc21`, for which the IC50 in [1], in data set [2], in [3], in [4], in data set [5] and in data set [6] was more than 100 µM throughout. Also, in data set [8], the IC50 was more than 100 µM. Further, the IC50 at 48 h in [7] is more than 100 µM.

As for `COC(=O)[C@H](CCCCNC(=O)CN1C(=O)C(=O)c2cc(F)ccc21)NC(=O)CN1C(=O)C(=O)c2cc(F)ccc21`, the 50% inhibitory concentration (IC50) in data set [1], in data set [2], in data set [3], in [4], in data set [5] and in data set [6] was more than 100 µM throughout. Moreover, the IC50 in [8] was more than 100 µM. The outcome in data set [9], in data set [10], in data set [11] and in data set [12] was Active. Also, the IC50 at 48 h in data set [7] is more than 100 µM.

Take `CNC(=O)c1cc(Oc2ccc(NC(=O)Nc3ccc(Cl)c(C(F)(F)F)c3)cc2)ccn1` [SORAFENIB]: the result in data set [13] and in data set [14] was Active. Besides, the IC50 in [2] was 9.63 µM; in [3], 14.7 µM; in [8], 10.7 µM.

With `COC(=O)[C@H](CCCCNC(=O)CN1C(=O)C(=O)c2cc(Cl)ccc21)NC(=O)CN1C(=O)C(=O)c2cc(Cl)ccc21`, the IC50 was more than 100 µM in data set [1]; 26.4 µM in data set [2]; 29.9 µM in data set [3]; more than 100 µM in [4]; more than 100 µM in data set [5]; more than 100 µM in [6]. The IC50 in [8] came to 45.8 µM. For the same molecule, in data set [7], the IC50 at 48 h was more than 100 µM.

As to `COC(=O)[C@H](CCCCNC(=O)CN1C(=O)C(=O)c2cc(Br)ccc21)NC(=O)CN1C(=O)C(=O)c2cc(Br)ccc21`, the Activity entry in data set [15], in data set [17], in data set [18], in [20], in [21] and in data set [22] was “Non-Toxic” each time. Moreover, the Activity entry in data set [23], in [24], in [26], in data set [27], in [28] and in data set [29] was “Non-Toxic” in each case. The Activity result in [30], in data set [31], in data set [33] and in data set [34] was “Non-Toxic” throughout. Moreover, the result in data set [16], in [19], in data set [25] and in data set [32] was Active. Also, the 50% inhibitory concentration (IC50) in data set [1] is more than 100 µM; in data set [2] it was 17.1 µM; in data set [3], 8.27 µM; in data set [4] it was more than 100 µM; in data set [5], more than 100 µM; in [6], more than 100 µM. In addition, the IC50 in [8] came out at 16.9 µM. In addition, in [7], the IC50 at 48 h is more than 100 µM.

Turning to `COC(=O)[C@H](CCCCNC(=O)CN1C(=O)C(=O)c2cc(C)ccc21)NC(=O)CN1C(=O)C(=O)c2cc(C)ccc21`, the IC50 in [1] was more than 100 µM; in data set [2] it was 35.1 µM; in [3] it was 32.9 µM; in [4] it was more than 100 µM; in data set [5] it was more than 100 µM; in data set [6], more than 100 µM. Moreover, the IC50 in [8] is more than 100 µM. In addition, in data set [7], the IC50 at 48 h is more than 100 µM.
